Laboratory results as given in ChEMBL document CHEMBL2412960, “Inhibition of Mycobacterium tuberculosis strains H37Rv and MDR MS-115 by a new set of C5 modified pyrimidine nucleosides” (Bioorg Med Chem, 2013).
In brackets after ≈: the same amount, converted by molar mass. Activity calls are given as the source filed them. The calls are words filed in the database; no cut-off is given here.

Experiments:
[1] = Cytotoxicity against human Jurkat cells after 72 hrs by MTT assay; type: cell-based; settings: read-out: CD50
[2] = tested on: Mycobacterium tuberculosis; assay: Bacteriostatic activity against Mycobacterium tuberculosis H37Rv assessed as growth inhibition at 20 ug/mL relative to control; type: functional; settings: read-out: GI
[3] = tested on: Mycobacterium tuberculosis; assay: Bacteriostatic activity against Mycobacterium tuberculosis H37Rv assessed as growth inhibition; type: functional
[4] = tested on: Mycobacterium tuberculosis; assay: Bacteriostatic activity against Mycobacterium tuberculosis H37Rv assessed as growth inhibition at 40 ug/mL relative to control; type: functional; settings: read-out: GI
[5] = Cytotoxicity against African green monkey Vero cells after 72 hrs by MTT assay; type: cell-based; settings: chlorocebus sabaeus, read-out: CD50
[6] = Cytotoxicity against human A549 cells after 72 hrs by MTT assay; type: cell-based; settings: read-out: CD50
Saccharomyces cerevisiae = assay: Antifungal activity against Saccharomyces cerevisiae RIA 259; type: functional, organism-based
[7] = tested on: Mycobacterium tuberculosis; assay: Bacteriostatic activity against Mycobacterium tuberculosis H37Rv assessed as growth inhibition at 5 ug/mL relative to control; type: functional; settings: read-out: GI
Staphylococcus aureus [8] = assay: Antibacterial activity against methicillin-susceptible Staphylococcus aureus FDA 209P; type: functional, organism-based
Bacillus pumilus = assay: Antibacterial activity against Bacillus pumilus NCTC 8241; type: functional, organism-based
Micrococcus luteus = assay: Antibacterial activity against Micrococcus luteus NCTC 8340; type: functional, organism-based
[9] = tested on: Leuconostoc mesenteroides; assay: Antibacterial activity against vancomycin-resistant Leuconostoc mesenteroides VKPM B-4177; type: functional
[10] = tested on: Mycobacterium tuberculosis; assay: Bacteriostatic activity against Mycobacterium tuberculosis H37Rv assessed as growth inhibition at 10 ug/mL relative to control; type: functional; settings: read-out: GI
Pseudomonas aeruginosa = assay: Antibacterial activity against Pseudomonas aeruginosa ATCC 27853; type: functional, organism-based
Bacillus mycoides = assay: Antibacterial activity against Bacillus mycoides 537; type: functional, organism-based
Escherichia coli = assay: Antibacterial activity against Escherichia coli ATCC 25922; type: functional, organism-based
Aspergillus niger = assay: Antifungal activity against Aspergillus niger INA 00760; type: functional, organism-based
Bacillus subtilis = assay: Antibacterial activity against Bacillus subtilis ATCC 6633; type: functional, organism-based
Staphylococcus aureus [11] = assay: Antibacterial activity against methicillin-resistant Staphylococcus aureus INA 00761; type: functional, organism-based
[12] = tested on: Leuconostoc mesenteroides; assay: Antibacterial activity against vancomycin-resistant Leuconostoc mesenteroides VKPM B-4177 at 95 ug/mL; type: functional
[13] = tested on: Mycobacterium tuberculosis; assay: Bacteriostatic activity against Mycobacterium tuberculosis H37Rv assessed as growth inhibition at 50 ug/mL relative to control; type: functional; settings: read-out: GI
[14] = tested on: Mycobacterium tuberculosis; assay: Bacteriostatic activity against Mycobacterium tuberculosis H37Rv assessed as growth inhibition at 100 ug/mL relative to control; type: functional; settings: read-out: GI
[15] = tested on: Mycobacterium tuberculosis; assay: Bacteriostatic activity against Mycobacterium tuberculosis H37Rv assessed as growth inhibition at 200 ug/mL relative to control; type: functional; settings: read-out: GI

Row | SMILES | CC50 at 72 h [1] [µg/mL] | inhibition of growth at 20 µg/mL [2] [%] | MIC99 [3] [µg/mL] | inhibition of growth at 40 µg/mL [4] [%] | CC50 at 72 h [5] [µg/mL] | CC50 at 72 h [6] [µg/mL] | Activity (Saccharomyces cerevisiae) | inhibition of growth at 5 µg/mL [7] [%] | Activity (Staphylococcus aureus [8]) | Activity (Bacillus pumilus) | Activity (Micrococcus luteus) | Activity [9] | inhibition of growth at 10 µg/mL [10] [%] | Activity (Pseudomonas aeruginosa) | Activity (Bacillus mycoides) | Activity (Escherichia coli) | Activity (Aspergillus niger) | Activity (Bacillus subtilis) | Activity (Staphylococcus aureus [11]) | also measured
1 | CCCCCCCCc1cn(Cc2cn([C@H]3C[C@H](O)[C@@H](CO)O3)c(=O)nc2N)nn1 | > 100 | 90 | 40 (≈ 95.1 µM) | 100 | > 100 | > 100 |  |  |  |  |  |  |  |  |  |  |  |  |  | 
2 | CCCCCCCCCCc1cn(Cc2cn([C@H]3C[C@H](O)[C@@H](CO)O3)c(=O)[nH]c2=O)nn1 | 100 (≈ 222 µM) |  | 10 (≈ 22.2 µM) |  | > 100 | 100 (≈ 222 µM) | inactive | 90 | inactive | inactive | inactive | inactive | 100 | inactive | inactive | inactive | inactive | inactive | inactive | 
3 | CCCCCCCCc1cn(Cc2cn([C@H]3C[C@H](O)[C@@H](CO)O3)c(=O)[nH]c2=O)nn1 | > 100 | 99 | 20 (≈ 47.4 µM) | 100 | > 100 | > 100 | inactive |  | inactive | inactive | inactive | inactive | 90 | inactive | inactive | inactive | inactive | inactive | inactive | 
4 | CCCCCCCCCCCCc1cn(Cc2cn([C@H]3C[C@H](O)[C@@H](CO)O3)c(=O)[nH]c2=O)nn1 | > 100 | 99 | 10 (≈ 20.9 µM) | 100 | > 100 | > 100 | inactive | 90 | inactive | inactive | inactive | inactive | 99 | inactive | inactive | inactive | inactive | inactive | inactive | 
5 | CCCCCCCCCCCOCc1cn([C@H]2C[C@H](O)[C@@H](CO)O2)c(=O)[nH]c1=O | 70 (≈ 170 µM) | 99 | 20 (≈ 48.5 µM) | 100 | > 100 | 90 (≈ 218 µM) | inactive |  | inactive | inactive | inactive | inactive |  | inactive | inactive | inactive | inactive | inactive | inactive | 
6 | CCCCCCCCCCCCOCc1cn([C@@H]2C[C@H](O)[C@@H](CO)O2)c(=O)[nH]c1=O | 40 (≈ 93.8 µM) | 99 | 20 (≈ 46.9 µM) |  | > 100 | 45 (≈ 105 µM) | inactive |  | inactive | inactive | inactive | inactive | 90 | inactive | inactive | inactive | inactive | inactive | inactive | Activity [12]: Active; inhibition of growth at 50 µg/mL [13]: 100%; inhibition of growth at 100 µg/mL [14]: 100%
7 | CCCCCCCCCCOCc1cn([C@H]2C[C@H](O)[C@@H](CO)O2)c(=O)[nH]c1=O |  |  | 40 (≈ 100 µM) | 99 | > 100 |  | inactive |  | inactive | inactive | inactive | inactive |  | inactive | inactive | inactive | inactive | inactive | inactive | 
8 | CCCCCCCCCCc1cn(Cc2cn([C@H]3C[C@H](O)[C@@H](CO)O3)c(=O)nc2N)nn1 | 100 (≈ 223 µM) | 90 | 40 (≈ 89.2 µM) | 100 | > 100 | 100 (≈ 223 µM) |  |  |  |  |  |  |  |  |  |  |  |  |  | 
9 | CCCCCCCCCCCCOCc1cn([C@H]2C[C@H](N=[N+]=[N-])[C@@H](CO)O2)c(=O)[nH]c1=O | 8 (≈ 17.7 µM) |  | 200 (≈ 443 µM) |  | 15 (≈ 33.2 µM) | 10 (≈ 22.1 µM) |  |  |  |  |  |  |  |  |  |  |  |  |  | inhibition of growth at 200 µg/mL [15]: 100%
10 | CCCCCCCCCCCCOCc1cn([C@H]2C[C@H](NCC)[C@@H](CO)O2)c(=O)[nH]c1=O | 5 (≈ 11 µM) | 100 | 10 (≈ 22 µM) |  | 13 (≈ 28.7 µM) | 5 (≈ 11 µM) |  | 75 |  |  |  |  | 99 |  |  |  |  |  |  | inhibition of growth at 50 µg/mL [13]: 100%; inhibition of growth at 100 µg/mL [14]: 100%
11 | CCCCCCCCCCCCOCc1cn([C@H]2C[C@H](O)[C@@H](CN=[N+]=[N-])O2)c(=O)[nH]c1=O | 18 (≈ 39.9 µM) | 100 | 10 (≈ 22.1 µM) |  | > 100 | 20 (≈ 44.3 µM) |  | 75 |  |  |  |  | 99 |  |  |  |  |  |  | inhibition of growth at 50 µg/mL [13]: 100%; inhibition of growth at 100 µg/mL [14]: 100%
